Calls of active or inactive are those of the source. No cut-off for these calls is given here.
What was measured:
Cathepsin B (Bos taurus) = Cathepsin B (Bos taurus) (UniProt P07688); test: Inhibition of cathepsin B in bovine spleen at 15 uM
[1] = Inhibition of alpha-chymotrypsin in bovine pancreas; parameters: species or system Bos taurus
Sus scrofa = organism: Sus scrofa; test: Inhibition of trypsin in pig pancreas at 15 uM

SMILES	Activity (Cathepsin B (Bos taurus))	IC50 [1] [nM]	Activity (Sus scrofa)
CCCCCC(=O)N[C@@H](CC(=O)O)C(=O)N[C@@H]1C(=O)N[C@@H](Cc2ccc(O)cc2)C(=O)N[C@H]2CC[C@@H](O)N(C2=O)[C@@H](CC(C)C)C(=O)N(C)[C@@H](Cc2ccccc2)C(=O)N[C@@H](C(C)C)C(=O)O[C@@H]1C [CYANOPEPTOLIN 963A]	inactive	900	inactive
CC[C@H](C)[C@@H]1NC(=O)[C@H](Cc2ccc(O)cc2)N(C)C(=O)[C@H](Cc2ccccc2)N2C(=O)[C@H](CC[C@H]2O)NC(=O)[C@H](Cc2ccccc2)NC(=O)[C@@H](NC(=O)[C@@H](O)COP(=O)(O)O)[C@@H](C)OC1=O [MICROPEPTIN T 20]		2.5	

From ChEMBL document CHEMBL1148932, “Cyanopeptolin 963A, a chymotrypsin inhibitor of Microcystis PCC 7806” (J Nat Prod, 2004)
